# Reference: ChEMBL document CHEMBL4392845, “Structure-activity relationship study of estrogen receptor down-regulators with a diphenylmethane skeleton” (Bioorg Med Chem, 2019)
# Key:
# Estrogen receptor [1] = molecular target: T1, Estrogen receptor (Homo sapiens, UniProt P03372)
# T1 sequence (P03372 whole entry): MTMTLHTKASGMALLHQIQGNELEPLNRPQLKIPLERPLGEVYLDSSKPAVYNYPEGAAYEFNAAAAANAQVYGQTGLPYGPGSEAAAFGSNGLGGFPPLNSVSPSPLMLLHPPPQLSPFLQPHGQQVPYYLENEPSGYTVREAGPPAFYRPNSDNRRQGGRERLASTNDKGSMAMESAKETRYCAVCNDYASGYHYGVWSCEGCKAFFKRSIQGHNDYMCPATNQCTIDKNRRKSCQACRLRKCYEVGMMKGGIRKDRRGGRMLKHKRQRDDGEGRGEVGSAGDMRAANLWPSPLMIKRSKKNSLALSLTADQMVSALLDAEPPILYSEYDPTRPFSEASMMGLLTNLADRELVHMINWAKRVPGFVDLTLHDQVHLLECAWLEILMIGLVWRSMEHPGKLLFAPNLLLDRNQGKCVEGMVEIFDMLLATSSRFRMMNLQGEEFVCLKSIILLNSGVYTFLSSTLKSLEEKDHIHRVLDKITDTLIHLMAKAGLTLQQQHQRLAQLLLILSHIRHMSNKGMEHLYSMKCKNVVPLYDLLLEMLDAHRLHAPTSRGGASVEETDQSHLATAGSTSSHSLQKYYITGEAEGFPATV
# Description: Antagonist activity at FLAG-tagged ERalpha (unknown origin) expressed in HEK293 cells assessed as reduction in E2-induced ER-alpha-mediated transcriptional activity by luciferase reporter gene assay
# Estrogen receptor [2] = molecular target: T1, Estrogen receptor; remark: listed apart in the source
# Description: (§1) Selective estrogen receptor down-regulator activity at FLAG-tagged ERalpha (unknown origin) expressed in HEK293 cells assessed as induction of ERalpha degradation by luciferase reporter gene assay
# Estrogen receptor [3] = molecular target: T1, Estrogen receptor; remark: listed apart in the source
# Description: Binding affinity to GST-tagged human ER alpha ligand-binding domain by TR-FRET assay
# Estrogen receptor [4] = molecular target: T1, Estrogen receptor; test: Agonist activity at FLAG-tagged ERalpha (unknown origin) expressed in HEK293 cells assessed as induction of ER-alpha-mediated transcriptional activity by luciferase reporter gene assay; type: cell-based
# Estrogen receptor [5] = molecular target: T1, Estrogen receptor; conditions: hek293
# Description: as §1
IC50 (Estrogen receptor [1]) [nM],EC50 (Estrogen receptor [2]) [nM],IC50 (Estrogen receptor [3]) [nM],EC50 (Estrogen receptor [4]) [nM],EC50 (Estrogen receptor [5]),Structure (SMILES)
207,545,7.5,,,CCCC(CCC)(c1ccc(O)c(C)c1)c1ccc(NC)c(C)c1
522,437,37,,,CCCC(CCC)(c1ccc(O)c(C)c1)c1ccc(/C=C/C(=O)O)c(C)c1
,> 10000,1280,,,CCCC(CCC)(c1ccc(O)c(CC)c1)c1ccc(O)c(CC)c1
,88,26,,,CCCCC(CCCC)(c1ccc(O)c(C)c1)c1ccc(O)c(C)c1
3.3,1,0.06,,,CCC(=C(c1ccc(O)cc1)c1ccc(O)cc1)c1ccccc1
99,116,90,,,CCCC(CCC)(c1ccc(O)c(C)c1)c1ccc(OCC(=O)OC(C)C)c(C)c1
36,,52,,Not Active,CCCC(CCC)(c1ccc(O)c(C)c1)c1ccc(OCCN(C)C)c(C)c1
94,204,99,,,CCCC(CCC)(c1ccc(O)c(C)c1)c1ccc(OCC(=O)N(C)C)c(C)c1
1200,427,160,,,CCCC(CCC)(c1ccc(O)c(C)c1)c1ccc(OCCC(C)C)c(C)c1
561,193,303,,,CCCC(CCC)(c1ccc(O)c(C)c1)c1ccc(/C=C/C(=O)OCC)c(C)c1

# The remaining lines, values behind:
Structure (SMILES),IC50 (Estrogen receptor [1]) [nM],EC50 (Estrogen receptor [2]) [nM],IC50 (Estrogen receptor [3]) [nM],EC50 (Estrogen receptor [4]) [nM],EC50 (Estrogen receptor [5])
CCCC(CCC)(c1ccc(O)c(C)c1)c1ccc(OCC(=O)OCC)c(C)c1,44,93,22,,
CCCC(CCC)(c1ccc(O)c(C)c1)c1ccc(NC(C)=O)c(C)c1,213,> 10000,354,,
CCCC(CCC)(c1ccc(O)c(C)c1)c1ccc(OCC(=O)NC)c(C)c1,31,104,43,,
CCC(CC)(c1ccc(O)cc1)c1ccc(O)cc1,,181,24,,
CCCC(CCC)(c1ccc(O)cc1)c1ccc(O)cc1,,65,5.9,,
CCCC(CCC)(c1ccc(N)c(C)c1)c1ccc(O)c(C)c1,8.1,9,1.7,1.3,
CCCCC(CCCC)(c1ccc(O)cc1)c1ccc(O)cc1,,606,100,,
CCC(CC)(c1ccc(O)c(C)c1)c1ccc(O)c(C)c1,,28,1.4,,
CCCC(CCC)(c1ccc(O)c(C)c1)c1ccc(O)c(C)c1,,10,1.3 to 3.2,,
Oc1ccc(Cc2ccc(O)cc2)cc1,> 10000,> 10000,1430,,
Cc1cc(Cc2ccc(O)c(C)c2)ccc1O,> 10000,> 10000,790,> 10000,
CCCC(CCC)(c1ccc(O)c(C)c1)c1ccc(N(C)C)c(C)c1,213,80,77,20,
CCc1cc(C(CC)(CC)c2ccc(O)c(CC)c2)ccc1O,,729,280,,
